In ChEMBL document CHEMBL1144964, “Inhibition of mandelate racemase by alpha-fluorobenzylphosphonates” (Bioorg Med Chem Lett, 2003):

Legend:
Mandelate racemase = target: T1, Mandelate racemase (Pseudomonas putida, UniProt P11444); assay: Inhibition constant against Mandelate racemase from Pseudomonas putida at pH 7.5
T1 sequence (P11444 whole entry): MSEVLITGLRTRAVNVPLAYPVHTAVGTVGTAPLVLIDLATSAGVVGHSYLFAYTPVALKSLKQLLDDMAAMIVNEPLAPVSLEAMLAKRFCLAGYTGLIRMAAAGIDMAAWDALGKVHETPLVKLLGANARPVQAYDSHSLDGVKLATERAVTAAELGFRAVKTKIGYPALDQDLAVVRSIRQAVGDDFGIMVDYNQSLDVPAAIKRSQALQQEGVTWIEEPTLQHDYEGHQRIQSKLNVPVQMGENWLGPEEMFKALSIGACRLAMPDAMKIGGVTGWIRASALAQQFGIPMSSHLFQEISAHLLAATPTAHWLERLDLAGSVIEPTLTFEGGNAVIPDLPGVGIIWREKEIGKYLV

[1] = Inhibition constant against Mandelate racemase from Pseudomonas putida at pH 6.3
[2] = Inhibition constant against mandelate racemase from Pseudomonas putida at pH 6.3
[3] = pKa2 (Dissociation constant) value (phosphonate group) was determined; format: physicochemical; conditions: read-out: pKa2

| SMILES | Ki (Mandelate racemase) [µM] | Ki [1] [µM] | Ki [2] [µM] | pKa [3] |
| --- | --- | --- | --- | --- |
| O=P(O)(O)C(F)c1ccccc1 (racemic) | 810 |  |  |  |
| O=P(O)(O)[C@H](F)c1ccccc1 | 530 | 87 |  |  |
| O=P(O)(O)C(F)(F)c1ccccc1 | 12000 |  | 1000 |  |
| O=C(c1ccccc1)P(=O)(O)O [BENZOYLPHOSPHONATE] | 300 |  |  | 5.46 |
| O=P(O)(O)[C@@H](F)c1ccccc1 | 1110 |  |  |  |
| O=P(O)(O)[C@@H](O)c1ccccc1 | 34 |  |  | 6.89 |
| O=P(O)(O)[C@H](O)c1ccccc1 | 1.1 |  |  | 6.89 |
| O=P(O)(O)Cc1ccccc1 [BENZYLPHOSPHONIC ACID] | 3600 |  |  |  |
| O=P(O)(O)C(O)c1ccccc1 (racemic) [ALPHA HYDROXY BENZYLPHOSPHONATE] | 4.7 |  |  | 6.89 |
